{GalNAc3} = trishexylamino-C6 triantennary GalNAc conjugate; e = 2'-O-(2-methoxyethyl) (MOE); d = 2'-deoxy (DNA)
Assays:
CYP2C9 = CYP2C9 (Homo sapiens, UniProt P11712); conditions: hepatocytes
Procedure: (§1) Preincubations were performed in 50 μL of Williams’ Medium E with 2 mM salicylamide. The salicylamide was included to reduce possible phase II conjugation to the precursor phase I metabolites. […] Human hepatocytes (pooled from 5 donors) were thawed and prepared according to the vendor’s protocol. […] Incubations were carried out at 37°C with 5% CO2. The incubation time was 45 min for phenacetin, diclofenac, dextromethorphan, midazolam, bupropion, chlorzoxazone, and testosterone and 90 min for paclitaxel and (S)-mephenytoin. The reactions were stopped by adding 200 μL of ice-cold acetonitrile (can) with tolbutamide (100 ng/mL) as the internal standard to 100 μL of hepatocyte suspension (1:2, v/v). The 96-well plate was then vortexed at 1,700 rpm for 3 min and centrifuged at 3,500 rpm for 10 min at 20°C. The supernatants were analyzed using liquid chromatography-tandem MS (LC-MS/MS).

CYP2E1 = CYP2E1 (Homo sapiens, UniProt P05181); conditions: hepatocytes
Procedure: as §1

CYP2C8 = biological target: T1, CYP2C8 (Homo sapiens, UniProt P10632); conditions: hepatocytes
T1 sequence (P10632 1-490): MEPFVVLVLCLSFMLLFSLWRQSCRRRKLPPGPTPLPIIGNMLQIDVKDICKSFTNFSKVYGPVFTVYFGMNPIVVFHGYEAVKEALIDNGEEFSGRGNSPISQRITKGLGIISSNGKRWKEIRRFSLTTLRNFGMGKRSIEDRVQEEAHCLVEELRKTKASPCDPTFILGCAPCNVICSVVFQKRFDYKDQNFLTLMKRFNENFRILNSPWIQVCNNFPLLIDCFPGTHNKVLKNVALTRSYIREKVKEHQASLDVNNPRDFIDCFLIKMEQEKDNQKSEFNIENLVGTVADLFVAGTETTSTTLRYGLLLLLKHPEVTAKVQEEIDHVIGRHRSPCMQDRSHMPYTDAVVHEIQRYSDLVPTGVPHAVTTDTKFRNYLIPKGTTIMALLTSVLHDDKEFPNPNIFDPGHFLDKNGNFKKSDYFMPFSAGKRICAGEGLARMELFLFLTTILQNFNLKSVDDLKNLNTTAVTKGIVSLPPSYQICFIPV
Procedure: as §1

CYP2D6 = CYP2D6 (Homo sapiens, UniProt P10635); conditions: hepatocytes
Procedure: as §1

CYP2C19 = CYP2C19 (Homo sapiens, UniProt P33261); conditions: hepatocytes
Procedure: as §1

CYP3A4 = CYP3A4 (Homo sapiens, UniProt P08684); conditions: hepatocytes
Procedure: as §1

CYP2B6 = biological target: T2, CYP2B6 (Homo sapiens, UniProt P20813); conditions: hepatocytes
T2 sequence (P20813 1-491): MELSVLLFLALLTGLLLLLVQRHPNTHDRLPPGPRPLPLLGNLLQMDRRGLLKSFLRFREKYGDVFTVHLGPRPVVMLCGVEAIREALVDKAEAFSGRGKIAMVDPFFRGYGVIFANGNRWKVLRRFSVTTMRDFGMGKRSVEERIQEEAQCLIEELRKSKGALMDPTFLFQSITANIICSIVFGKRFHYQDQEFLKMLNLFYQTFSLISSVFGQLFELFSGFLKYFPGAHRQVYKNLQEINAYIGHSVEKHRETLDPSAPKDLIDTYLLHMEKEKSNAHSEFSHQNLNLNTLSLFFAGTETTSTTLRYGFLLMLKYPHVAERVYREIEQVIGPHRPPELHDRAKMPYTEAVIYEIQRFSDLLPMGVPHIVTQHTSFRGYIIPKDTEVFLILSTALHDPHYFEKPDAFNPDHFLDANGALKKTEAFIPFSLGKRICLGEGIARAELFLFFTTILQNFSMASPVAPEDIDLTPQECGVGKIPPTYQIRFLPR
Procedure: as §1

OATP1B1 = system: T3, OATP1B1; assay: OATP1B1 substrate uptake study in MDCK cells; assay type: in vitro ADME; conditions: 10 μM ASO
T3 construct: expressed in transfected cells; host or cells: MDCK-II
Procedure: A 96-well cell culture plate containing a monolayer of MDCK-II cells grown on a permeable support and a corresponding receiver tray was used. The basolateral compartment of the culture plate and wells were washed with warm HBSS three times, with wells of the culture plate serving as the apical compartment. The wash was aspirated by adding 150 μL of 37°C HBSS to both compartments. Plates were incubated at 37°C with orbital shaking at 60 rpm for 15 min for OAT1, OAT3, OCT1, OCT2, OATP1B1, and OATP1B3 (±5 min). The pre-incubation buffer from both compartments was aspirated and 150 μL of the following was added to the basal compartment. For the probe substrate transport assay, HBSS in each well contained one of following probe substrates (positive control for transport), OCT1, 2 μM [^3H]-MPP^+; OCT2, 10 μM [^14C]-metformin; OAT1, 2 μM [^3H]-p-aminohippurate; OAT3, 10 μM [^3H]-p-aminohippurate; OATP1B1, 2 μM [^3H]-estradiol-17 β-D-glucuronide; and OATP1B3, 2 μM [^3H]-cholecystokinin octapeptide (CCK-8). […] Inhibition studies contained HBSS in each well, the probe substrate, and 100 μM of each test article, whereas substrate studies contained HBSS in each well and 10 μM of each test article. […] Samples containing probe substrate were added to 200 μL of scintillation fluid and counted on a 1450 Microbeta (PerkinElmer), whereas samples containing the test article were kept frozen. Test article concentrations, including control samples, were evaluated by an LC-MS method.
Signal to noise for probe substrates was calculated by dividing the uptake of the probe substrate in transporter-expressing cells by the uptake of probe substrate in control cells not expressing the transporter of interest. Percent inhibition was calculated by dividing the net-transporter-mediated substrate uptake in the presence of the test article or the reference inhibitor by the net-transporter-mediated substrate uptake in the absence of the inhibitor according to the equation: %inhibition=100−(100×(transporter-mediateduptake)withinhibitor/(transporter-mediateduptake)withoutinhibitor).

CYP1A2 = biological target: T4, CYP1A2 (Homo sapiens, UniProt P05177); assay: CYP1A2 inhibition in cryopreserved human hepatocyte suspensions (phenacetin probe); assay type: in vitro ADME; conditions: human hepatocytes
T4 construct: Human hepatocytes (pooled from 5 donors); host or cells: cryopreserved human hepatocytes in suspension, pooled from 5 donors
Procedure: as §1

OATP1B3 = system: T5, OATP1B3; assay: OATP1B3 inhibition study in MDCK cells; assay type: in vitro ADME; conditions: 100 μM ASO, 2 μM CCK-8
T5 construct: expressed in transfected cells; host or cells: MDCK-II
Procedure: A 96-well cell culture plate containing a monolayer of MDCK-II cells grown on a permeable support and a corresponding receiver tray was used. The basolateral compartment of the culture plate and wells were washed with warm HBSS three times, with wells of the culture plate serving as the apical compartment. The wash was aspirated by adding 150 μL of 37°C HBSS to both compartments. Plates were incubated at 37°C with orbital shaking at 60 rpm for 15 min for OAT1, OAT3, OCT1, OCT2, OATP1B1, and OATP1B3 (±5 min). The pre-incubation buffer from both compartments was aspirated and 150 μL of the following was added to the basal compartment. […] Samples containing probe substrate were added to 200 μL of scintillation fluid and counted on a 1450 Microbeta (PerkinElmer), whereas samples containing the test article were kept frozen. Test article concentrations, including control samples, were evaluated by an LC-MS method.
Signal to noise for probe substrates was calculated by dividing the uptake of the probe substrate in transporter-expressing cells by the uptake of probe substrate in control cells not expressing the transporter of interest. […]

Chain of CYP3A4 (P08684 whole entry): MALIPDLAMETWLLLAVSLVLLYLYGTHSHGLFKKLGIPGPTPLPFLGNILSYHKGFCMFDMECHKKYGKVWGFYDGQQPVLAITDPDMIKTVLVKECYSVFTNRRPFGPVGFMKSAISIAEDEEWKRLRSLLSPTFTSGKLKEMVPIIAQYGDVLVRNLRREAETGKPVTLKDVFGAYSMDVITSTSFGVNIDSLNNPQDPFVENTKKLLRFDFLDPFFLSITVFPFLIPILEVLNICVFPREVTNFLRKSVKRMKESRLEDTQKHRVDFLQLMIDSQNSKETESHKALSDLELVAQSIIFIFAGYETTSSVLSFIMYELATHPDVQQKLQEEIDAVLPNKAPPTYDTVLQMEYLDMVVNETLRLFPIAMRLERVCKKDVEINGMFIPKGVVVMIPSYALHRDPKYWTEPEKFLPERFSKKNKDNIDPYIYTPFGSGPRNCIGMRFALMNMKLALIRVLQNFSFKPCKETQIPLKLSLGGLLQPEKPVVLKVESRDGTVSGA
Chain of CYP2C9 (P11712 whole entry): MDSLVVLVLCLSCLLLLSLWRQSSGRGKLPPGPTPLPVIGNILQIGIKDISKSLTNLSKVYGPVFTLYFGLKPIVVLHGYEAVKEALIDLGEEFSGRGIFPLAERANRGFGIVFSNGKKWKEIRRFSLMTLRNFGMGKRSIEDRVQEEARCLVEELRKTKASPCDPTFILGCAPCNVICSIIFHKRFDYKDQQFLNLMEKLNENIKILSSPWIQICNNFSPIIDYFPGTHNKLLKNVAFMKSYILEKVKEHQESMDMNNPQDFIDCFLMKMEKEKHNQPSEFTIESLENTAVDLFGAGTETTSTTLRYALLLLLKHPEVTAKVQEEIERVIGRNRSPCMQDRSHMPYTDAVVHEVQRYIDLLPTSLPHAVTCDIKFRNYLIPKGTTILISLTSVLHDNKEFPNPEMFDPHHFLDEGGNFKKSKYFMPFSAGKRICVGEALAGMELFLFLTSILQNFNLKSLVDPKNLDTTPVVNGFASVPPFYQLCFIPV
Chain of CYP2C19 (P33261 whole entry): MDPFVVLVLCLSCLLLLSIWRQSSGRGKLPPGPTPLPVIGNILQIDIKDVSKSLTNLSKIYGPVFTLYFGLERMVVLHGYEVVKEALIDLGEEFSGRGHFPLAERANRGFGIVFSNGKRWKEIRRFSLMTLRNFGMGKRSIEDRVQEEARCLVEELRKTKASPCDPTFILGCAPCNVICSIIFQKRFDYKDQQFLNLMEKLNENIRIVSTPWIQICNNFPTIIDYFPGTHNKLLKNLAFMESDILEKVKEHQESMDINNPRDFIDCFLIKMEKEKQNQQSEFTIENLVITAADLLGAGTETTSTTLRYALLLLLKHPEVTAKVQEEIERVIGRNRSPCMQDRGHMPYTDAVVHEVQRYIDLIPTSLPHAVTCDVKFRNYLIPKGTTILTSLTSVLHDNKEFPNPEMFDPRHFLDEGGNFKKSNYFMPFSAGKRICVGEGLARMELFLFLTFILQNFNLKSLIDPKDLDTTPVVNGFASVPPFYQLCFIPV
Chain of CYP2E1 (P05181 whole entry): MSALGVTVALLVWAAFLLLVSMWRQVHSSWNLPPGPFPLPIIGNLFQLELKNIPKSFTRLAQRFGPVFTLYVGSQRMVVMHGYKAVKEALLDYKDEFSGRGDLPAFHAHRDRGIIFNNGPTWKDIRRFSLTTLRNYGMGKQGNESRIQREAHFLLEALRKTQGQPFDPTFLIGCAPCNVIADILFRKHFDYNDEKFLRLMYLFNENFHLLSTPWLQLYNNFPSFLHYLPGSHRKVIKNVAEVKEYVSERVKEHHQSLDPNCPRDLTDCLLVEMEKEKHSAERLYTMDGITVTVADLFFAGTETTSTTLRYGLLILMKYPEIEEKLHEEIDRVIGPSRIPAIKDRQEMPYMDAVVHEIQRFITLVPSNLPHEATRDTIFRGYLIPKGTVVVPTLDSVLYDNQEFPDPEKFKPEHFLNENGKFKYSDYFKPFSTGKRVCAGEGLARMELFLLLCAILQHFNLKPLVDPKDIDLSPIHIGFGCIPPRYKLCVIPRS
Chain of CYP2D6 (P10635 whole entry): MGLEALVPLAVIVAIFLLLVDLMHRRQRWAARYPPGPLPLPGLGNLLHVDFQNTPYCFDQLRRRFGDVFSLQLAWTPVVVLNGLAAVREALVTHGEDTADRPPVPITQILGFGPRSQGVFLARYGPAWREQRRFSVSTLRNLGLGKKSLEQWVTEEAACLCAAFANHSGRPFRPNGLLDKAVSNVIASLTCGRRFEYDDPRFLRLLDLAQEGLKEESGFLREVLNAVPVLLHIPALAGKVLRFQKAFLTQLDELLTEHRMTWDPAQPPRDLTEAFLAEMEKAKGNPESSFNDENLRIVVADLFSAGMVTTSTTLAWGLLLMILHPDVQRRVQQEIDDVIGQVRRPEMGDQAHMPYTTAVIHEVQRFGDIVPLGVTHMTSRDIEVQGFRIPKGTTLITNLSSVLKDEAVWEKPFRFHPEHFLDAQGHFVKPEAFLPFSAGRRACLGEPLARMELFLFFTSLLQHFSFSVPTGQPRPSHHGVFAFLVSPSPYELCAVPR
T4 sequence (P05177 whole entry): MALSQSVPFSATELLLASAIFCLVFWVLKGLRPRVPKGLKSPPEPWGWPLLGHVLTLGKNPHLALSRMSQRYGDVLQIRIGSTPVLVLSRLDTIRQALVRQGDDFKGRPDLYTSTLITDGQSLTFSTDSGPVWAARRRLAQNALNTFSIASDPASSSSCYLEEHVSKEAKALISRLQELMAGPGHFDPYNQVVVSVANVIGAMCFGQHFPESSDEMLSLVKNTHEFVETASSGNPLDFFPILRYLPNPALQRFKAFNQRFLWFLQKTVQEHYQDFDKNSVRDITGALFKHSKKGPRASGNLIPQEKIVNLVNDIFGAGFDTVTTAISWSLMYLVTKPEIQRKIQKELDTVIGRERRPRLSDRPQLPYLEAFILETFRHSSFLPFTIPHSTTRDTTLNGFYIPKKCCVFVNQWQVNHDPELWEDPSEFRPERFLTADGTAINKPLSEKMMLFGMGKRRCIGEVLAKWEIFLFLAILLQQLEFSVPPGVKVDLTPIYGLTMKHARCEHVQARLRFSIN

Substance	IC50 (CYP2C9)	IC50 (CYP2E1)	IC50 (CYP2C8)	IC50 (CYP2D6)	IC50 (CYP2C19)	IC50 (CYP3A4)	IC50 (CYP2B6)	OATP1B1-mediated uptake relative to corresponding controls (OATP1B1)	IC50 (CYP1A2)	Enhancement of probe substrate uptake, OATP1B3 (OATP1B3)
ISIS 304801: 20-mer (5-10-5) 2′-MOE gapmer PS backbone antisense inhibitor of apoC-III, sequence AGCTTCTTGTCCAGCTTTAT (sugars from the 5' end e5 d10 e5, all phosphorothioate, methylation of C not given here)	> 100 µM	> 100 µM	> 100 µM	> 100 µM	> 100 µM	> 100 µM	> 100 µM	< 2 fold	> 100 µM	–
ISIS 420915: 20-mer 2′-MOE gapmer PS backbone antisense inhibitor of transthyretin, sequence TCTTGGTTACATGAAATCCC (all phosphorothioate, sugars by position and methylation of C not given here; 2'-MOE gapmer)	> 100 µM	> 100 µM	> 100 µM	> 100 µM	> 100 µM	> 100 µM	> 100 µM	< 2 fold	> 100 µM	–
ISIS 681257: 20-mer 2′-MOE gapmer PS/PO mixed backbone ASO conjugated to 5′-trishexylamino GalNAc3, targets Lp(a), sequence TGCTCCGTTGGTGCTTGTTC (5' {GalNAc3}, sugars by position and backbone not given here; 2'-MOE gapmer with mixed PS/PO backbone)	–	–	–	–	–	–	–	< 2 fold	–	38.3%

Reference: article PMC5602538, “Assessment of the Drug Interaction Potential of Unconjugated and GalNAc3-Conjugated 2′-MOE-ASOs” (Molecular Therapy. Nucleic Acids, 2017)
